Test results reported in patent publication US10845367B2, “Modified multispanning membrane polypeptides and methods of use thereof to screen therapeutic agents” (Abilita Bio, Inc., priority 2016, dated 2020).
Converted amounts (≈) assume the structure as drawn. Like-named read-outs stand apart in the source and are kept apart here.

What was measured:
[1] = system: E. coli strains (e.g. BL21 or DH10beta); assay: Growth of E. coli on LB medium with varying antibiotic concentrations (MIC); assay type: cell-based; settings: for Antibiotic concentration to which resistance is conferred: E. coli transformed with mutated GPR55 clones; for MIC: Escherichia coli
WT-GPR55 = target: T1, WT-GPR55 (Homo sapiens, UniProt Q9Y2T6); assay: Genetic immunization of mice with protein boost, FACS analysis of sera on transfected cells; assay type: in vivo; settings: C57BL6 mice; 50 μg cDNA in NanoTaxi, 2 DNA boosts, 1 boost with 50 μg purified protein in IFA; polyclonal sera by FACS
T1 construct: expressed in transfected cells
Method: The genetic immunization work was performed using NanoTaxi® at In-Cell-Art (Nantes, France). NanoTaxi® is a DNA delivery system optimized for genetic immunization where the delivered genetic material is formulated with a mixture of different chemical families of lipids and polymers.
The cDNA corresponding to the EMP012 of the GPR55 receptor was cloned into a pCMV-based vector and cell surface expression was confirmed via transient transfection of HEK293T and HeLa cells prior to immunogen administration.
C57BL6 mice were immunized with 50 μg EMP012 cDNA construct formulated into the NanoTaxi® for the primary challenge, followed by 2 boosts of 50 μg using the same NanoTaxi®-based formulation at two-weekly intervals, followed by 1 boost using 50 μg purified EMP012 protein in IFA adjuvant. In some instances, boosting was carried out for the in-vivo affinity maturation by somatic hypermutation of the primary antibody response. The level of immune response was assessed at regular intervals by FACS analysis using Hela cells transfected with an unrelated GPCR (left panel) or WT-GPR55 (right panel) (FIG. 7).

[2] = E. coli containing a plasmid encoding wild-type human GPR55
[3] = E. coli expressing certain constructs containing NTSR1 (rat, aa 43-424), read-out: Apparent MIC

T1 sequence (Q9Y2T6 with tags, fused parts or gaps): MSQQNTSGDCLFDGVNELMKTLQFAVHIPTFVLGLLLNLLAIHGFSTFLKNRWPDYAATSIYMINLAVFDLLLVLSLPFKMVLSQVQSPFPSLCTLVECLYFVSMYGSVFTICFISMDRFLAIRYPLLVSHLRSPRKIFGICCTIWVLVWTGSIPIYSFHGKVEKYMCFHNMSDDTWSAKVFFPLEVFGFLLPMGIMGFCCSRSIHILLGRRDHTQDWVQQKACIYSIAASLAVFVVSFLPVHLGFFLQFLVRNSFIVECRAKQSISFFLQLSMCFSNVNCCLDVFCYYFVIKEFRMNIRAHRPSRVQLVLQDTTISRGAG

Molecule	Antibiotic concentration to which resistance is conferred [1] [mg/L]	MIC [1, 2] [µg/mL]	MIC [1, 3] [µg/mL]	MIC ([1]; untransformed cells, LB medium) [µg/mL]	Immune response against WT-GPR55 (WT-GPR55)
CC1(C)S[C@@H]2[C@H](NC(=O)C(C(=O)O)c3ccccc3)C(=O)N2[C@H]1C(=O)O (some centres unmarked) [carbenicillin]	> 80	~40 (≈ 106 µM)	> 75		
NC[C@H]1O[C@H](O[C@H]2[C@H](O)[C@@H](O[C@H]3O[C@H](CO)[C@@H](O)[C@H](N)[C@H]3O)[C@H](N)C[C@@H]2N)[C@H](O)[C@@H](O)[C@@H]1O [kanamycin]	> 50	~25 (≈ 51.6 µM)	> 50	~10 (≈ 20.6 µM)	
EMP012: Modified GPR55 receptor (Enabled Membrane Protein), SEQ ID NO: 2, mutated relative to wild-type GPR55; used as cDNA and purified protein (protein, listed as Homo sapiens) MSQQNTSGNCLFDGMNELMKTLQFAVHIPTFVLGLLLNLLAIHGFSTFLKNRWPDYAATSIYMINLAVFDLLLVLSLPFKIVLSQVQSPFPSLCTLVECLYFVSMYGSVFTICFISMDRFLAIRYPLLVSHLRSPRKIFGICCTIWVLVWTGSIPIYSFHGKVEKYMCFHNMSDDTWSAKVFFPLEVFGFLLPMGIMGFCCSRSIHILLGRRDHTQDWVQQKACIYSIAASLAVFVVSFLPVHLGFFLQFLVRNSFIVECRAKQSISFFLQLSKCFSNVNCCLDVFCYYFVIKEFRMNIRAHRPSRVQLVLQDTTISRGAG					robust and specific immune response
